What is called IC50 is the concentration at which inhibition is half-maximal. Lower therefore signals inhibition by little substance.

Structures are written as SMILES. Some results are limits rather than exact numbers.

Data set [1] concerns CaCo-2 cells. Put plainly: Inhibition of proliferation of CaCo-2 cells (WST-1, Example 8). The format is cell-based. Particulars: Homo sapiens, 12 hours; for inhibition at 5 µM: read-out: % Inhibition of Proliferation at 5 μM Compound. On the procedure: The effect of N,N,-diethyl-8,8-dipropyl-2-azaspiro[4,5]decane-2-propanamine dimaleate (Compound 1) and other analogs (structures shown in Table 7) on proliferation of CaCo-2, a human colon carcinoma cell line, were evaluated in the following manner. Cell proliferation was measured by WST-1 dye conversion to Formazan assay using a proliferation kit from BioVision, CA. The procedure used was essentially the same as described in the manufacture's instructions. Briefly, cells were grown for 7 days until they formed semi-confluent monolayers. On day 7, cells were trypsinized and re-suspended in 96-well plates at a concentration of approximately 50,000 cells/well. […] A solution of 10 μl of WST-1 dye per well was added and plates were read after 4 hours at 440 and 600 nm using an ELISA plate reader. The absorbance at 440-600 nm is directly proportion to the number of proliferating cells. All samples were measured in duplicate and results were expressed as an average of two determinations.
On the technique in general: Formazan colour is commonly taken as a measure of viable cells.

The test system of data set [2] is chorioallantoic membrane (CAM). Put plainly: Anti-angiogenesis CAM assay. The format is in vivo, White Leghorn eggs. Particulars: Dose per egg 100 μg; 48 hour exposure; ten eggs. The procedure: The dosing was effected by pipetting 40 μl of the indicated solution onto a 13 mm round Thermanox® coverslip and allowing it to air dry. After the material appeared dry, the coverslip was placed onto the chorioallantoic membrane (CAM) of each egg insuring contact of the dried test article with the CAM. After dosing, the eggs were returned to the incubator for approximately 48 hours. Following the 48 hour exposure period, the eggs were removed from the incubator, observed for viability, and the exposed area under the coverslip was examined for loss of vasculature.

As to `CCCC1(CCC)CCC2(CCN(CCCN3CCCCC3)C2)CC1` [M], in data set [1], the inhibition at 5 µM is 67% and the IC50 was approximately 4 µM.

Take `CN(C)CCCN1CCC2(CCCCC2)CC1` [D]: in data set [1], the inhibition at 5 µM was 0% and the IC50 was more than 20 µM.

For the compound `O=C1CCC(N2C(=O)c3ccccc3C2=O)C(=O)N1` (stereo not shown) [Thalidomide, reference compound], the “Dead Eggs” value in data set [2] worked out at 0.

With `CCC1(CC)CCC2(CCN(CCCN(C)C)C2)CC1` [F], in data set [1], the inhibition at 5 µM amounted to 35% and the IC50 is more than 20 µM.

For `CCCC1(CCC)CCC2(CCN(CCCCCCN(C)C)C2)CC1` [L], in data set [1], the inhibition at 5 µM was found to be 76% and the IC50 was approximately 3.5 µM. `CCCCCC1(CCCCC)CCC2(CCN(CCCN(C)C)CC2)CC1` [G]: in data set [1], the inhibition at 5 µM amounted to 86% and the IC50 was approximately 2.5 µM. The corresponding values for `CCCCC1(CCCC)CCC2(CCN(CCCN(C)C)C2)CC1` [J] are 84% and approximately 2.5 µM.

Regarding `CN(C)CCCN1CCC2(CCOCC2)C1` [B], in data set [1], the inhibition at 5 µM was found to be 0% and the IC50 was more than 20 µM.

`CN(C)CCCN1CCC2(CCC(C)(C)CC2)C1` [E]: in data set [1], the inhibition at 5 µM turned out to be 0% and the IC50 was more than 20 µM. The corresponding values for `CN(C)CCCN1CCC2(CCC(C(C)(C)C)CC2)CC1` [A] are 45% and approximately 20 µM.

For the compound `CCCCCCCCCCC1CCC2(CC1)CCN(CCCN(C)C)C2` (stereo not shown) [H], in data set [1], the inhibition at 5 µM turned out to be 73% and the IC50 was approximately 3.5 µM. The corresponding values for `CCCCC1(CC)CCC2(CCN(CCCN(C)C)C2)CC1` (stereo not shown) [K] are 81% and approximately 2.5 µM. The corresponding values for `CN(C)CCCN1CCC2(CCC(C(C)(C)C)CC2)C1` (stereo not shown) [Compound C] are 15% and more than 20 µM.
